Experimental data published in patent publication EP0728012B1, “NOVEL GnRH ANALOGUES WITH ANTITUMOUR EFFECTS AND PHARMACEUTICAL COMPOSITIONS THEREOF” (Lovas, Sandor, priority 1994, dated 1996).

Tests used:
human tumour cell lines = experiment: Inhibition of colony formation (Example 18), cell line not given; type: cell-based; conditions: 50 µM of the active substance; cell line not stated
Procedure: The investigation gives a precise information about the cell-damaging effect of the tested substance. In the case of cytostatics the cell-damaging effect is not cell-specific. […] One part of the arrested cells again go into the cycle, the other part may perish (apoptosis). […] The investigations were carried out on MCF-7 and MDA-MB-231 human mammary carcinoma cell lines, PC3 human prostate 15 carcinoma cell line and Ishikawa human endometrium carcinoma cell line. Three hundred cells were set into Petri dishes of 3.5 cm in diameter each. The treatment was carried out once, 24 hours following the explantation, then the colonies formed were counted after 9 to 12 days.

Ishikawa = conditions: 30 µM active substance, conjugate, treated once
Procedure: The procedure of treatment was as follows. After trypsinization the cells, 400,000 cells of MCF-7, MDA-MB-231 human mammary carcinoma, PC3 human prostate carcinoma or Ishikawa human endometrium tumour each were passed into Petri dishes of 10 cm in diameter. Starting from the day following transfer, the cells were treated with the substances to be tested in solution prepared with the nutrient medium during the exponential growth phase. The cultures were treated with 1 to 50 µM (calculated for the total volume of the culture) or MI-1544 GnRH antagonist, MI-1892 chicken GnRH antagonist or SJ-1004 GnRH […] on the 7th day.

MCF-7 xenograft = experiment: In vivo antitumour effect on MCF-7 xenograft in immunosuppressed mice; set-up: species or system CBA/Ca mice; conditions: for rate of tumour growth / decrease in the tumour volume in comparison to controls: first study; for rate of tumour growth: conjugates 150 µg in every 3rd day, P-GFLG-OH daily s.c.; for decrease in the tumour volume in comparison to controls: end of 4th week, MI-1892 2 x 25 µg daily, conjugates 50 µg daily once; for tumour volume: 4th week of treatment; for Tumour volume as control (%): conjugates 1 x 50 µg; for Inhibition % (tumour growth): daily s.c.; for Volume (cm^3) of tumours / Weight (g) of tumours: after 6 week treatment, xenograft not given
Procedure: (§1) The immunosuppression of mice was carried out by using the method of Steel et al. [Br. J. Cancer, 37, 224-230 (1978)]. Immunosuppression and xeno-transplantation
(§2) CBA-Ca female mice of about 6 weeks old were thymectomized and then, after one week, they were irradiated with 60Co (whole body irradiation; the lethal dose is 9.5 Gray). Within 24 hours 3 to 5 x 10^5 myelocytes were injected into the animals. Beneath the skin of the immunosuppressed mice 2 x 10^7 tumour cells or, in the case of later passages, […] were implanted. […] The treatment with steroid hormone was stopped by at least one week before beginning the investigation.
In the case of MCF-7 tumours (xenografts) the examinations were carried out with passages being in the phase of the 37th and 38th, respectively, transplantations.
In the case of mice bearing MCF-7 xenograft, the treatment was begun in the 4th week following xeno-transplantation.
(§3) Recent investigations have begun on 28 animals bearing MCF-7 xenograft and on 28 animals bearing MDA-MB-231 xenograft. On animals bearing MCF-7 tumour the treatment was commenced in the 5th week following xeno-transplantation; the tumour volume was 205 to 225 mm^3. On animals bearing MDA-MB-231 tumour, the treatment was started in the 4th week after xeno-transplantation with a tumour volume of 140 to 150 mm^3. […] The control groups were daily treated with physiological saline s.c. (Each treated group consisting of 7 animals).

[1] = tested on: cytosolic progesterone receptor (cPgR); conditions: animals bearing MCF-7 xenografts
MDA-MB-231 xenograft = experiment: In vivo antitumour effect on MDA-MB-231 xenograft in immunosuppressed mice; set-up: species or system CBA/Ca mice; conditions: for tumour-free animals: end of the 6th week, first series
Procedure: as §1, §2, §3
A more recent study was started on 28 animals bearing MDA-MB-231 xenograft. The treatment was begun in the 4th or 5th week following xenotransplantation. The tumour volume was 0.165 to 0.194 cm^3. […] (For treatment of the control group, see the preceding Examples). Each group consisted of 7 animals.

PC3 = experiment: In vitro inhibition of cell proliferation (Example 19); type: cell-based, human; conditions: 30 µM active substance, conjugate, treated once
In short: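 Starting from 400,000 cells per dish during exponential growth, cultures received GnRH antagonist analogues or lamprey GnRH-III at 1 to 50 µM every two days. Cell count determined on day 7.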

[2] = MCF-7 xenograft, treatment week 2
[3] = MCF-7 xenograft, treatment week 4
[4] = MCF-7 xenograft, treatment week 6, MI-1892 2 x 25 µg
[5] = Table V, treatment week 2, conjugates 1x50 µg daily s.c.
[6] = Table V, treatment week 6, MI-1892 2x25 µg, conjugates 1x50 µg daily s.c.
[7] = week 0, daily s.c., P-GFLG-1544 1 x 50 µg, P-GFLG-1892 1 x 75 µg
[8] = week 1, daily s.c., P-GFLG-1544 1 x 50 µg, P-GFLG-1892 1 x 75 µg
[9] = week 2, daily s.c., P-GFLG-1544 1 x 50 µg, P-GFLG-1892 1 x 75 µg
[10] = week 3, daily s.c., P-GFLG-1544 1 x 50 µg, P-GFLG-1892 1 x 75 µg
[11] = week 4, daily s.c., P-GFLG-1544 1 x 50 µg, P-GFLG-1892 1 x 75 µg
[12] = week 5, daily s.c., P-GFLG-1544 1 x 50 µg, P-GFLG-1892 1 x 75 µg
[13] = week 6, daily s.c., P-GFLG-1544 1 x 50 µg, P-GFLG-1892 1 x 75 µg
[14] = MDA-MB-231 xenograft, after 9 week treatment, 100 µg daily s.c.
[15] = Table V, treatment week 2, 1x100 µg daily s.c.
[16] = Table V, treatment week 6, 1x100 µg daily s.c.
[17] = week 0, daily s.c., 1 x 100 µg series
[18] = week 1, daily s.c., 1 x 100 µg series
[19] = week 2, daily s.c., 1 x 100 µg series
[20] = week 3, daily s.c., 1 x 100 µg series
[21] = week 4, daily s.c., 1 x 100 µg series
[22] = week 5, daily s.c., 1 x 100 µg series
[23] = week 6, daily s.c., 1 x 100 µg series
[24] = week 7, daily s.c., 1 x 100 µg series

Ac-D-Trp^1,3,D-Cpa^2, {Lys[n-poly(N-vinyl pyrrolidone-co-maleic acid)-Gly-Phe-Leu-Gly-]}^5, [a-Asp(DEA)]^6, D-Ala^10-GnRH [P-GFLG-1892]
inhibition on the colony formation / survival of the cells (human tumour cell lines): 100% | % Inhibition of cell division (proliferation) (Ishikawa): 91% | rate of tumour growth (MCF-7 xenograft; MCF-7 xenograft): not influenced | decrease in the tumour volume in comparison to controls (MCF-7 xenograft; MCF-7 xenograft): 30% | tumour volume (MCF-7 xenograft; MCF-7 xenograft): 2.428 cm^3 | Tumour volume as control (%) (MCF-7 xenograft; [2]): 70% | Inhibition % (tumour growth) (MCF-7 xenograft; MCF-7 xenograft, treatment week 2, listed as 5. P-GFLG-1892): 30% | Inhibition % (tumour growth) (MCF-7 xenograft; [3]): 37% | Tumour volume as control (%) (MCF-7 xenograft; [4]): 57% | Inhibition % (tumour growth) (MCF-7 xenograft; MCF-7 xenograft, treatment week 6, listed as 5. P-GFLG-1892): 43% | Volume (cm^3) of tumours (MCF-7 xenograft): 4.327 ± 0.379 cm^3 | Weight (g) of tumours (MCF-7 xenograft): 4.0 ± 0.9 g | decrease of the uterus cPgR level [1]: 23% | tumour-free animals (MDA-MB-231 xenograft; MDA-MB-231 xenograft): A tumour-free animal was found | Inhibition % (MDA-MB-231 xenograft; [5]): 26.5% | Tumour volume as control (%) (MDA-MB-231 xenograft; [5]): 73.5% | Inhibition % (MDA-MB-231 xenograft; [6]): 44% | Tumour volume as control (%) (MDA-MB-231 xenograft; [6]): 56% | Tumour volume (cm^3) (MDA-MB-231 xenograft; [7]): 0.15 cm^3 | Tumour volume as control (%) (MDA-MB-231 xenograft; [7]): 100% | Tumour volume (cm^3) (MDA-MB-231 xenograft; [8]): 0.21 cm^3 | Tumour volume as control (%) (MDA-MB-231 xenograft; [8]): 84% | Tumour volume (cm^3) (MDA-MB-231 xenograft; [9]): 0.25 cm^3 | Tumour volume as control (%) (MDA-MB-231 xenograft; [9]): 79% | Tumour volume (cm^3) (MDA-MB-231 xenograft; [10]): 0.27 cm^3 | Tumour volume as control (%) (MDA-MB-231 xenograft; [10]): 74% | Tumour volume (cm^3) (MDA-MB-231 xenograft; [11]): 0.34 cm^3 | Tumour volume as control (%) (MDA-MB-231 xenograft; [11]): 81% | Tumour volume (cm^3) (MDA-MB-231 xenograft; [12]): 0.33 cm^3 | Tumour volume as control (%) (MDA-MB-231 xenograft; [12]): 75% | Tumour volume (cm^3) (MDA-MB-231 xenograft; [13]): 0.33 cm^3 | Tumour volume as control (%) (MDA-MB-231 xenograft; [13]): 58% | % Inhibition of cell division (proliferation) (PC3): 51%

Ac-D-Trp^1,3,D-Cpa^2,{Lys(n-poly-(N-vinylpyrrolidone-co-maleic acid)-Gly-Phe-Leu-Gly]}^6,D-Ala^10-GnRH [P-GFLG-1544]
inhibition on the colony formation / survival of the cells (human tumour cell lines): 100% | % Inhibition of cell division (proliferation) (Ishikawa): 95% | rate of tumour growth (MCF-7 xenograft; MCF-7 xenograft): not influenced | decrease in the tumour volume in comparison to controls (MCF-7 xenograft; MCF-7 xenograft): 30% | tumour volume (MCF-7 xenograft; MCF-7 xenograft): 1.806 cm^3 | tumour-free animals (MCF-7 xenograft; MCF-7 xenograft, 6th week): a tumour-free animal was found | Tumour volume as control (%) (MCF-7 xenograft; [2]): 70% | Inhibition % (tumour growth) (MCF-7 xenograft; MCF-7 xenograft, treatment week 2, listed as 6. P-GFLG-1544): 30% | Inhibition % (tumour growth) (MCF-7 xenograft; [3]): 49% | Tumour volume as control (%) (MCF-7 xenograft; [4]): 51% | Inhibition % (tumour growth) (MCF-7 xenograft; MCF-7 xenograft, treatment week 6, listed as 6. P-GFLG-1544): 49% | Volume (cm^3) of tumours (MCF-7 xenograft): 3.502 ± 0.321 cm^3 | Weight (g) of tumours (MCF-7 xenograft): 4.8 ± 0.8 g | decrease of the uterus cPgR level [1]: 54% | animals that became tumour-free (MDA-MB-231 xenograft; MDA-MB-231 xenograft, 100 µg daily s.c., 6th week of treatment): 1 animals from 7 | Volume (cm^3) of tumours (MDA-MB-231 xenograft; [14]): 1.618 ± 0.518 cm^3 | Weight (g) of tumours (MDA-MB-231 xenograft; [14]): 0.94 ± 0.52 g | tumour-free animals (MDA-MB-231 xenograft; MDA-MB-231 xenograft): A tumour-free animal was found | Inhibition % (MDA-MB-231 xenograft; [15]): 29% | Tumour volume as control (%) (MDA-MB-231 xenograft; [15]): 71% | Inhibition % (MDA-MB-231 xenograft; [5]): 23.5% | Tumour volume as control (%) (MDA-MB-231 xenograft; [5]): 76.5% | Inhibition % (MDA-MB-231 xenograft; [16]): 53% | Tumour volume as control (%) (MDA-MB-231 xenograft; [16]): 47% | Inhibition % (MDA-MB-231 xenograft; [6]): 40% | Tumour volume as control (%) (MDA-MB-231 xenograft; [6]): 60% | Tumour volume (cm^3) (MDA-MB-231 xenograft; [17]): 0.17 cm^3 | Tumour volume as control (%) (MDA-MB-231 xenograft; [17]): 101% | Tumour volume (cm^3) (MDA-MB-231 xenograft; [7]): 0.15 cm^3 | Tumour volume as control (%) (MDA-MB-231 xenograft; [7]): 100% | Tumour volume (cm^3) (MDA-MB-231 xenograft; [18]): 0.24 cm^3 | Tumour volume as control (%) (MDA-MB-231 xenograft; [18]): 105% | Tumour volume (cm^3) (MDA-MB-231 xenograft; [8]): 0.21 cm^3 | Tumour volume as control (%) (MDA-MB-231 xenograft; [8]): 83% | Tumour volume (cm^3) (MDA-MB-231 xenograft; [19]): 0.3 cm^3 | Tumour volume as control (%) (MDA-MB-231 xenograft; [19]): 72% | Tumour volume (cm^3) (MDA-MB-231 xenograft; [9]): 0.21 cm^3 | Tumour volume as control (%) (MDA-MB-231 xenograft; [9]): 66% | Tumour volume (cm^3) (MDA-MB-231 xenograft; [20]): 0.36 cm^3 | Tumour volume as control (%) (MDA-MB-231 xenograft; [20]): 65% | Tumour volume (cm^3) (MDA-MB-231 xenograft; [10]): 0.24 cm^3 | Tumour volume as control (%) (MDA-MB-231 xenograft; [10]): 66% | Tumour volume (cm^3) (MDA-MB-231 xenograft; [21]): 0.35 cm^3 | Tumour volume as control (%) (MDA-MB-231 xenograft; [21]): 53% | Tumour volume (cm^3) (MDA-MB-231 xenograft; [11]): 0.28 cm^3 | Tumour volume as control (%) (MDA-MB-231 xenograft; [11]): 67% | Tumour volume (cm^3) (MDA-MB-231 xenograft; [22]): 0.46 cm^3 | Tumour volume as control (%) (MDA-MB-231 xenograft; [22]): 49% | Tumour volume (cm^3) (MDA-MB-231 xenograft; [12]): 0.33 cm^3 | Tumour volume as control (%) (MDA-MB-231 xenograft; [12]): 75% | Tumour volume (cm^3) (MDA-MB-231 xenograft; [23]): 0.58 cm^3 | Tumour volume as control (%) (MDA-MB-231 xenograft; [23]): 47% | Tumour volume (cm^3) (MDA-MB-231 xenograft; [13]): 0.36 cm^3 | Tumour volume as control (%) (MDA-MB-231 xenograft; [13]): 63% | Tumour volume (cm^3) (MDA-MB-231 xenograft; [24]): 0.75 cm^3 | Tumour volume as control (%) (MDA-MB-231 xenograft; [24]): 59% | % Inhibition of cell division (proliferation) (PC3): 68.5%
